In PubChem BioAssay (NCI):
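Exposure lasted 48 hours, with cells grown in 96-well plates and compounds tested at five concentrations. TGI: concentration producing complete growth inhibition.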

What was measured:
Test in all cases: NCI anticancer screen, dose series, 48 h
NCI/ADR-RES ovarian = system: NCI/ADR-RES ovarian
COLO 205 colon = system: COLO 205 colon
CCRF-CEM leukemia = system: CCRF-CEM leukemia
HCT-116 colon = system: HCT-116 colon
K-562 leukemia = system: K-562 leukemia
SF-539 CNS = system: SF-539 CNS
RXF 393 renal = system: RXF 393 renal
LOX IMVI melanoma = system: LOX IMVI melanoma
KM12 colon = system: KM12 colon
HOP-92 NSCLC = system: HOP-92 NSCLC
A549 NSCLC = system: A549 NSCLC
MDA-MB-435 = system: MDA-MB-435
PC-3 prostate = system: PC-3 prostate
SNB-75 CNS = system: SNB-75 CNS
M14 melanoma = system: M14 melanoma
DU-145 prostate = system: DU-145 prostate
SK-MEL-2 melanoma = system: SK-MEL-2 melanoma
TK-10 renal = system: TK-10 renal
HCT-15 colon = system: HCT-15 colon
UO-31 renal = system: UO-31 renal
EKVX NSCLC = system: EKVX NSCLC
MCF7 breast = system: MCF7 breast
NCI-H522 lung = system: NCI-H522 lung
SR leukemia = system: SR leukemia
786-0 renal = system: 786-0 renal
SF-295 CNS = system: SF-295 CNS
MDA-N = system: MDA-N
OVCAR-4 ovarian = system: OVCAR-4 ovarian
SF-268 CNS = system: SF-268 CNS
MDA-MB-231 breast = system: MDA-MB-231 breast
SW-620 colon = system: SW-620 colon
HOP-62 NSCLC = system: HOP-62 NSCLC
HL-60(TB) leukemia = system: HL-60(TB) leukemia
OVCAR-5 ovarian = system: OVCAR-5 ovarian
CAKI-1 renal = system: CAKI-1 renal
SK-MEL-5 melanoma = system: SK-MEL-5 melanoma
MALME-3M melanoma = system: MALME-3M melanoma
T-47D breast = system: T-47D breast
UACC-257 melanoma = system: UACC-257 melanoma
IGROV1 ovarian = system: IGROV1 ovarian
NCI-H226 lung = system: NCI-H226 lung
SK-OV-3 ovarian = system: SK-OV-3 ovarian
HT29 colon = system: HT29 colon
A498 renal = system: A498 renal
MOLT-4 leukemia = system: MOLT-4 leukemia
HS 578T breast = system: HS 578T breast
SN12C renal = system: SN12C renal
OVCAR-8 ovarian = system: OVCAR-8 ovarian
RPMI-8226 leukemia = system: RPMI-8226 leukemia
SK-MEL-28 melanoma = system: SK-MEL-28 melanoma
UACC-62 melanoma = system: UACC-62 melanoma
NCI-H460 lung = system: NCI-H460 lung
U251 CNS = system: U251 CNS
BT-549 breast = system: BT-549 breast
OVCAR-3 ovarian = system: OVCAR-3 ovarian
SNB-19 CNS = system: SNB-19 CNS
ACHN renal = system: ACHN renal
NCI-H23 lung = system: NCI-H23 lung

Measured: TGI

COc1nc2ncc([C@@H](O)[C@H](O)CO)nc2c(=O)n1C
not listed: NCI-H23 lung
> 100 µM: all other assays above

NCC(O)CSP(=O)(O)O (centres undefined)
not listed: SF-539 CNS
> 100 µM: all other assays above
